Each structure is given as a SMILES string.

The subject of the test is parasites (ring stage, in human red blood cell culture). Put plainly: Parasite LDH growth assay (antiparasite potency, Parasite Assay). It is filed as cell-based, Plasmodium falciparum. Particulars: 0.7% rings, 2% haematocrit, 72 hours at 37° C., LDH readout of parasite growth. The protocol: Assessing Antiparasite Potency in a Parasite LDH Growth Assay (Parasite Assay)
The parasite stock was maintained at 4% haematocrit in RPMI-Hepes media buffered with sodium bicarbonate and supplemented with 5% heat inactivated human serum and 0.5% albumax.
On the day of assay set up, a blood smear of the parasite culture was Giemsa stained and counted. The parasitemia was adjusted to 0.7% rings and the haematocrit was diluted to 2% in RPMI-Hepes media buffered with sodium bicarbonate and supplemented with 5% heat inactivated human serum and 0.5% albumax. 30 ul of diluted parasites are then added into 10 ul of media+compound in pre-prepared Greiner TC assay plates. Parasite assay plates were placed in gassed humidified boxes in single layer and allowed to incubate at 37° C. for 72 hours. After 72 hours growth, assay plates are sealed with parafilm and frozen flat, in single file at −80° C. overnight. On the following day, assay plates are allowed to thaw at room temperature for 4 hours to which an LDH assay is performed to measure parasite growth.
For `CCC1(CC)CC(=O)N([C@H]2c3cc(C(=O)N[C@H]4CC(C)(C)Oc5ccccc54)ccc3O[C@]2(C)COC)C(=N)N1` (single isomer, unassigned) [Example 74A], the EC50 is 0.3 nM.
The figure for `CCC1(CC)CC(=O)N([C@H]2c3cc(C(=O)N[C@H]4CC(C)(C)Oc5ccccc54)ccc3O[C@]2(C)COC)C(=N)N1` (single isomer, unassigned) [Example 74B] is 6.5 nM; for `CCC1(CC)CC(=O)N([C@@H]2CCOc3ccc(C(=O)NC4c5ccccc5OC4(C)C)cc32)C(=N)N1` (single isomer, unassigned) [Example 133A] it is 1.4 nM; for `CCC1(CC)CC(=O)N([C@@H]2CCOc3ccc(C(=O)NC4c5ccccc5OC4(C)C)cc32)C(=N)N1` (single isomer, unassigned) [Example 133B] it is 17 nM.
Next, `CCC1(CC)CC(=O)N([C@@H]2CCOc3ccc(C(=O)NC4c5ccccc5OC4(C)CO)cc32)C(=N)N1` (single isomer, unassigned) [Example 176A]: 29.2 nM; `CCC1(CC)CC(=O)N([C@@H]2CCOc3ccc(C(=O)NC4c5ccccc5OC4(C)CO)cc32)C(=N)N1` (single isomer, unassigned) [Example 176C]: 2.4 nM; `CCC1(CC)CC(=O)N([C@@H]2CCOc3ccc(C(=O)NC4c5ccccc5OC4(C)CO)cc32)C(=N)N1` (single isomer, unassigned) [Example 176D]: 114 nM.
The figure for `CCC1(CC)CC(=O)N(C2c3cc(C(=O)N[C@@H]4c5ccccc5C[C@H]4O)ccc3OC2(C)CO)C(=N)N1` (single isomer, unassigned) [Example 178A] is 108 nM; for `CCC1(CC)CC(=O)N(C2c3cc(C(=O)N[C@@H]4c5ccccc5C[C@H]4O)ccc3OC2(C)CO)C(=N)N1` (single isomer, unassigned) [Example 178B] it is 2.2 nM.
In turn, `CC[C@]1(C)CC(=O)N(C2CC(C)Oc3ccc(C(=O)N[C@@H]4c5ccccc5OC[C@@]4(C)O)cc32)C(=N)N1` (single isomer, unassigned) [Example 181A] displayed an EC50 of 189 nM. Compared with the last compound, the EC50 is about 86-fold higher.
The figure for `CC[C@]1(C)CC(=O)N(C2CC(C)Oc3ccc(C(=O)N[C@@H]4c5ccccc5OC[C@@]4(C)O)cc32)C(=N)N1` (single isomer, unassigned) [Example 181B] is 7.9 nM; for `CC[C@]1(C)CC(=O)N([C@@H]2CCOc3ccc(C(=O)NC4c5cc(F)ccc5OCC4(C)O)cc32)C(=N)N1` (single isomer, unassigned) [Example 190A] it is 261 nM; for `CC[C@]1(C)CC(=O)N([C@@H]2CCOc3ccc(C(=O)NC4c5cc(F)ccc5OCC4(C)O)cc32)C(=N)N1` (single isomer, unassigned) [Example 190B] it is 2.6 nM.
The figure for `CC[C@]1(C)CC(=O)N([C@@H]2CCOc3ccc(C(=O)NC4c5cc(F)ccc5OCC4(C)O)cc32)C(=N)N1` (single isomer, unassigned) [Example 190C] is 4.9 nM.
The figure for `CC[C@]1(C)CC(=O)N([C@@H]2CCOc3ccc(C(=O)NC4c5c(F)cccc5OCC4(C)O)cc32)C(=N)N1` (single isomer, unassigned) [Example 193A] is 96.4 nM; for `CC[C@]1(C)CC(=O)N([C@@H]2CCOc3ccc(C(=O)NC4c5c(F)cccc5OCC4(C)O)cc32)C(=N)N1` (single isomer, unassigned) [Example 193B] it is 0.8 nM.
As to `CC[C@]1(C)CC(=O)N([C@@H]2CCOc3ccc(C(=O)NC4c5c(F)cccc5OCC4(C)O)cc32)C(=N)N1` (single isomer, unassigned) [Example 193C], the EC50 is 19.5 nM. Compared with the last compound, the EC50 is about 24-fold higher.
The figure for `COCC1(C)Oc2ccc(C(=O)N[C@H]3CC(C)(C)Oc4ccccc43)cc2C1N1C(=N)NC(C)(C)CC1=O` (single isomer, unassigned) [Example 214A] is 8.2 nM; for `COCC1(C)Oc2ccc(C(=O)N[C@H]3CC(C)(C)Oc4ccccc43)cc2C1N1C(=N)NC(C)(C)CC1=O` (single isomer, unassigned) [Example 214B] it is 260 nM.

The EC50 is the midpoint of the concentration-response curve.

For the origin of these results see US12350270B2, “Antimalarial agents” (Merck Sharp & Dohme LLC, priority 2019, dated 2025).
